Laboratory results published in patent US7645449B2, “Sensitizing cells for apoptosis by selectively blocking cytokines” (priority 2003, dated 2010).

Tests used:
Assay type in all cases: cell-based, human
[1] = test system: RT112 bladder carcinoma cells; test: MTS viability of RT112 cells: chemotherapy- and anti-CD95-induced apoptosis; conditions: RT112 without IL-4; 50 ng/ml camptothecin or 7 μM etoposide
Description: Anticancer treatment using cytotoxic drugs mediates cell death by activating the intracellular apoptotic program. To determine whether IL-4 was able to inhibit apoptosis induced by chemotherapeutic drugs, bladder tumor cells (RT112) were pretreated for two days with different concentrations of IL-4 and subsequently exposed to camptothecin or etoposide.
Human LNCAP prostate cancer cell line and human MDA-MB-231 breast cancer cell line were obtained from the American Type Culture Collection (ATCC, Manassas, Va.). Human RT112 bladder carcinoma cell line was kindly provided by Dr. M. Cippitelli (Regina Elena Cancer Institute, Rome, Italy). Cells were grown in RPMI 1640 (Life Technologies Inc., Grand Island, N.Y.) containing 10% heat inactivated fetal bovine serum supplemented with L-Glutamine 2 mM and 100 units/ml Penicillin-Streptomycin. Cells were kept in 5% CO2 atmosphere and routinely passaged when 80-85% confluent. […] Camptothecin, cisplatin, daunorubicine, etoposide and vincristine were purchased from Sigma-Aldrich Inc. (Sain Louis, Mo.) and resuspended in DMSO (cisplatin, camptothecin and etoposide) or in H2O (daunorubicine and vincristine). Anti-CD95 agonistic antibody (clone CH11) was purchased from Upstate Biotechnology (Lake Placid, N.Y.). Monoclonal antibody anti-Bcl-XL (H5, mouse) was from Santa Cruz (Santa Cruz, Calif.), antibody anti-cFlip/FLAME-1 (NF6, mouse) was kindly provided by Dr. P.H. Krammer (German Cancer Reseach Center, Heidelberg, Germany). Antibody anti β-actin (goat) was purchased from Oncogene (Boston, Mass.):
Cell viability was determined using the CellTiter 96® AQueous One Solution Cell Proliferation Assay (Promega, Madison, Wis.), according to the manufacturer's instructions. The assay is based on reduction of 3-(4,5-dimethylthiazol-2-yl)-5-(3-carboxymethoxyphenyl)-2-(4-sulfophenyl)-2H-tetrazolium, inner salt (MTS) to a colored formazan product that is measured spectrophotometrically. Cells were seeded in 96-well tissue culture plates and incubated at 37° C. in a 5% CO2 incubator overnight. […] After two days cells were treated for 10 hours with chemotherapeutic drugs or anti-CD95, then 20 μl of MTS were added to each well. After 3 hours of incubation at 37° C. with the MTS reagent, the plates were read on a Multilabel Counter (Victor2, Wallac, Perkin-Ehmer Inc., Norwalk, Conn.) and dye absorbance was measured at 490 nm.
The percentage of apoptotic cells was derived from the percentage of viable cells that was directly calculated from the values of the MTS assay. The percentage of protection from apoptosis was determined as: % protection=100%−X
X was calculated with the formule: (C1−C2):100=(S1−S2):X where:
C1 is the viability of untreated control cells, C2 is the viability of control cells treated with the apoptotic stimulus, S1 and S2 are the viability of cells preincubated with cytoldnes or transduced with anti-apoptotic genes, untreated (S1) or treated (S2) with the apoptotic stimuli.
(A) Percentage of viable RT112 bladder carcinoma cells pre-treated for two days with increasing doses of IL-4 (5, 10, 20, 50 and 100 ng/ml) which were maintained also during incubation with chemotherapeutic drugs and exposed to 50 ng/ml camptothecin of 7 μM etoposide. […] Cell viability was determined after 24 hours using the MTS assay as described in Materials and Methods and the percentage of protection from cell death was calculated as described in Materials and Methods. The results shown are the mean ±s.d. of four independent experiments.
When the cytokine is removed by washing the percentage of protection is downmodulated.
(E) IL-4 prevents anti CD95-induced apoptosis. […] Successively, cells were incubated with 30 ng/ml anti-CD95 agonistic antibody in standard medium, Control cells (−) were stimulated with anti-CD95 in the absence of cytokine pre-treatment. The results shown are the mean ±s.d. of four independent experiments.

[2] = test system: primary neoplastic cells derived from all the histological variants of thyroid epithelial carcinomas (PTC, FTC, UTC); test: Chemotherapy-induced cell death in freshly purified thyroid carcinoma cells compared with normal thyrocytes; conditions: cisplatin 300 ng/ml, doxorubicin 5 μM, taxol 5 μM, 6, 12 and 24 h
Protocol: Such resistance persisted for some days and was generally lost after eight to ten days of in vitro culture (results not shown).
(§1) Thyroid cell purification and culture. Thyroid tissues from normal, PTC, FTC and UTC were digested for 2 hours with collagenase (1.5 mg/ml) (Gibco BRL, Grand Island, N.Y.) and hyaluronidase (20 μg/ml) (Sigma Chemical Co., St. Louis, Mo.) in DMEM. Thyrocytes were purified from the digested tissues by hematopoietic cell depletion with anti-CD45-coupled beads (Dynal, Wirral Merseyside, U.K.) and 12 hours of flask adherence, which allowed removal of other cells. After additional 12 hours of culture, thyroid cells were allowed to grow in monolayer for the immunocytochemistry or detached with trypsin+EDTA following exposure to cytokines or chemotherapeutic agents for functional and protein analyses. Thyrocytes were cultured in standard DMEM with 10% heat-inactivated FBS (Hyclone Laboratories, Logan, UK) in the presence or absence of human recombinant IL-4 (20 ng/ml), IL-10 (40 ng/ml) or IFN-γ (1000 IU/ml) (uroclone, Paignton, UK) and cisplatin (300 ng/ml), doxorubicin (5 μM) and taxol (5 μM) (Sigma) or TRAIL (Alexis, San Diego, USA). For the IL-4 and IL-10 neutralization, thyroid cancer cells were pretreated, for 48 hours, with anti-human IL-4 and IL-10 neutralizing antibodies (1 μg/ml) (R&D systems, MN, USA).
Cell death quantitation. Apoptotic events of neoplastic thyrocytes were evaluated by DNA staining and flow cytometry analysis. Thyroid cell pellets were resuspended in hypotonic fluoroclrome solution containing propidium iodide (50 μg/ml), in 0.1% sodium citrate and 0.1% Triton X-100. The percentage of hypodiploid nuclei was evaluated as previously described. Alternatively, freshly purified thyrocytes were plated in 96-bottomed plates in triplicate at 15,000 cells/well and cultured. The number of viable cells was detected by CellTiter Aqueous Assay Kit (Promega Corporation, WI, USA) adding 20 μl of solution reagent directly to culture wells, incubating for 1 hours at 37° C. and recording absorbance at 490 nm.
FIG. 1. […]

[3] = test system: Bcl-xL and Bcl-2 in normal thyrocytes; test: Immunoblot of Bcl-xL and Bcl-2 in normal thyrocytes cultured with cytokines; conditions: after 48 hours of culture; IL-4 20 ng/ml, IL-10 40 ng/ml, IFN-γ 1000 IU/ml
Protocol: as §1
Protein isolation and Western Blotting. Cell pellets were resuspended in ice-cold NP-40 lysis buffer (50 mM Tris-HCl, pH 7.5, 150 mM NaCl, 1 mM EGTA, 1% NP-40) containing 1 mM PMSF, leupeptin (1 μg/ml), pepstatin (1 μg/ml) and aprotirni (1 μg/ml). Each lysate (30 μg) was fractioned on 12% SDS-polyacrylamide gels and blotted to nitrocellulose (Hybond, Amersham, Little Chalfont Buckinghamshire England, UK). Membrane was blocked for 1 h with nonfat dry milk in TBS containing 0.05% Tween 20 and successively incubated for 2 h with Abs specific to actin (Ab-1, mouse IgM, Calbiochem, Darmstadt, Germany), Bcl-2 (124, mouse IgG1, Upstate Biotechnology Inc.), Bcl-xL (H-5, mouse IgGl, Santa Cniz Biotechnology), IL-4 (3007.11, mouse IgG1, R&D Systems, Inc., Minneapolis, USA), IL-10 (23738.111, mouse IgG2b, R&D Systems), IFN-γ (25718.111, mouse IgG2a, R&D Systems). […]

normal thyrocytes = test: Cytokine protection of normal thyrocytes from chemotherapy-induced apoptosis; conditions: 48 h pre-treatment, rhIL-4 20 ng/ml or rhIL-10 40 ng/ml, then drugs for 12 h
Protocol: Thyroid cell purification and culture. Thyroid tissues from normal, PTC, FTC and UTC were digested for 2 hours with collagenase (1.5 mg/ml) (Gibco BRL, Grand Island, N.Y.) and hyaluronidase (20 μg/ml) (Sigma Chemical Co., St. Louis, Mo.) in DMEM. Thyrocytes were purified from the digested tissues by hematopoietic cell depletion with anti-CD45-coupled beads (Dynal, Wirral Merseyside, U.K.) and 12 hours of flask adherence, which allowed removal of other cells. After additional 12 hours of culture, thyroid cells were allowed to grow in monolayer for the immunocytochemistry or detached with trypsin+EDTA following exposure to cytokines or chemotherapeutic agents for functional and protein analyses. […]
Cell death quantitation. Apoptotic events of neoplastic thyrocytes were evaluated by DNA staining and flow cytometry analysis. […] The percentage of hypodiploid nuclei was evaluated as previously described. […] The number of viable cells was detected by CellTiter Aqueous Assay Kit (Promega Corporation, WI, USA) adding 20 μl of solution reagent directly to culture wells, incubating for 1 hours at 37° C. and recording absorbance at 490 nm. […]

CC[C@@]1(O)C(=O)OCc2c1cc1n(c2=O)Cc2cc3ccccc3nc2-1 [camptothecin, reference compound]
tumor cells undergoing apoptosis in response to chemotherapeutic agents [1]: ~60%

N.N.[Cl][Pt][Cl] [cisplatin]
sensitivity of primary neoplastic thyroid cells to chemotherapeutic drugs (viability/apoptosis) [2]: considerable resistance

COc1cccc2c1C(=O)c1c(O)c3c(c(O)c1C2=O)C[C@@](O)(C(=O)CO)C[C@@H]3O[C@H]1C[C@H](N)[C@H](O)[C@H](C)O1 [doxorubicin]
sensitivity of primary neoplastic thyroid cells to chemotherapeutic drugs (viability/apoptosis) [2]: considerable resistance

COc1cc([C@@H]2c3cc4c(cc3[C@@H](O[C@@H]3O[C@@H]5CO[C@@H](C)O[C@H]5[C@H](O)[C@H]3O)[C@H]3COC(=O)[C@H]23)OCO4)cc(OC)c1O [etoposide, reference compound]
tumor cells undergoing apoptosis in response to chemotherapeutic agents [1]: ~60%

CC(=O)O[C@H]1C(=O)[C@@]2(C)[C@H]([C@H](OC(=O)c3ccccc3)[C@]3(O)C[C@H](OC(=O)[C@H](O)[C@@H](NC(=O)c4ccccc4)c4ccccc4)C(C)=C1C3(C)C)[C@]1(OC(C)=O)CO[C@@H]1C[C@@H]2O [taxol]
sensitivity of primary neoplastic thyroid cells to chemotherapeutic drugs (viability/apoptosis) [2]: considerable resistance

B1: IFN-γ: human recombinant IFN-γ (protein, UniProt P01579 24-161, looked up)
Interferon gamma: QDPYVKEAENLKKYFNAGHSDVADNGTLFLGILKNWKEESDRKIMQSQIVSFYFKLFKNFKDDQSIQKSVETIKEDMNVKFFNSNKKKRDDFEKLTNYSVTDLNVQRKAIHELIQVMAELSPAAKTGKRKRSQMLFRG
Bcl-xL and Bcl-2 expression in normal thyrocytes [3]: not effective

B2: IL-10: human recombinant IL-10 (protein, UniProt P22301 19-178, looked up)
Interleukin-10: SPGQGTQSENSCTHFPGNLPNMLRDLRDAFSRVKTFFQMKDQLDNLLLKESLLEDFKGYLGCQALSEMIQFYLEEVMPQAENQDPDIKAHVNSLGENLKTLRLRLRRCHRFLPCENKSKAVEQVKNAFNKLQEKGIYKAMSEFDIFINYIEAYMTMKIRN
Bcl-xL and Bcl-2 expression in normal thyrocytes [3]: upregulated | prevention of death of normal thyrocytes exposed to cisplatinum, doxorubicin and taxol (normal thyrocytes): drastically prevented death
